Assay results from patent US10314841B2, “Substituted pyrazoles as IRAK inhibitors” (Merck Patent GmbH, priority 2014, dated 2019).
pIC50: −log10 of the molar value.

Columns and labels:
[1] = biological target: T1, IRAK4 (His-TEV-IRAK4) (Homo sapiens, UniProt Q9NWZ3); experiment: IRAK4 enzymatic assay; type: biochemical; conditions: human recombinant His-TEV-IRAK4, ATP 2 μM, STK1-biotin peptide 300 nM, 3 hours at 30° C., FlashPlate
T1 construct: His (N); TEV cleavage site (N)
T1 sequence (Q9NWZ3 1-460): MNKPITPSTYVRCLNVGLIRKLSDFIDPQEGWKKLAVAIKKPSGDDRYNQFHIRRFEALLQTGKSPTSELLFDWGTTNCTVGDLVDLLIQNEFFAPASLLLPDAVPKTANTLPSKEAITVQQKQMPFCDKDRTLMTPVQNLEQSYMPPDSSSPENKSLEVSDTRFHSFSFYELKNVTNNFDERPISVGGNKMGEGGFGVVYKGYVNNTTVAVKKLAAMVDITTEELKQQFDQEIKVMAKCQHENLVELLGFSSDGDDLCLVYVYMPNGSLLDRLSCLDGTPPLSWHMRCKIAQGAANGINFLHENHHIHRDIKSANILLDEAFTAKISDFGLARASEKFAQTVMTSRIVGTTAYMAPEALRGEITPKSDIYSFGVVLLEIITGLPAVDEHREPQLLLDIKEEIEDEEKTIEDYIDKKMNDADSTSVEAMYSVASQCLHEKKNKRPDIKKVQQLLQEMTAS
Procedure: IRAK4 Enzymatic Assay IRAK4 is a human purified recombinant enzyme (His-TEV-[…] (194-712). IRAK4 hydrolyses ATP, autophosphorylates and phosphorylates a Serine/Threonine generic peptidic substrate (STK: 61 ST1BLC from CisBio International based in Bagnols/Cèze FR). Measurement of IRAK-4 inhibition was performed in streptavidin coated 384 well FlashPlate (PerkinElmer #SM[…]). His-TEV-IRAK4 (20 ng/well), ATP (2 μM, [^33P]ATP 0.25 μCi/well), STK1-biotin peptide (300 nM) and compounds in DMSO (range of concentrations from 20 μM to 1 nM) or controls (2% DMSO) were incubated for 3 hours at 30° C. in assay buffer: Hepes pH7.0 50 mM, Fatty acid-free BSA 0.1%, Dithiothreitol DTT 2 mM, MgCl2 10 mM, EGTA 0.5 mM, Tween-20 0.01%, MnCl2 5 mM. Kinase reaction was stopped by addition of EDTA. Supernatant was discarded, plates were washed three times with 150 mM NaCl and radioactivity was then measured in a Microbeta Trilux reader.

[2] = biological target: T2, IRAK1 (His-TEV-IRAK1 (194-712)) (Homo sapiens, UniProt P51617); experiment: IRAK1 enzymatic assay; type: biochemical; conditions: human recombinant His-TEV-IRAK1, ATP 1 μM, 3 hours at 30° C., FlashPlate
T2 construct: His-TEV-IRAK1 (194-712); His (N); TEV cleavage site (N)
T2 sequence (P51617 194-712): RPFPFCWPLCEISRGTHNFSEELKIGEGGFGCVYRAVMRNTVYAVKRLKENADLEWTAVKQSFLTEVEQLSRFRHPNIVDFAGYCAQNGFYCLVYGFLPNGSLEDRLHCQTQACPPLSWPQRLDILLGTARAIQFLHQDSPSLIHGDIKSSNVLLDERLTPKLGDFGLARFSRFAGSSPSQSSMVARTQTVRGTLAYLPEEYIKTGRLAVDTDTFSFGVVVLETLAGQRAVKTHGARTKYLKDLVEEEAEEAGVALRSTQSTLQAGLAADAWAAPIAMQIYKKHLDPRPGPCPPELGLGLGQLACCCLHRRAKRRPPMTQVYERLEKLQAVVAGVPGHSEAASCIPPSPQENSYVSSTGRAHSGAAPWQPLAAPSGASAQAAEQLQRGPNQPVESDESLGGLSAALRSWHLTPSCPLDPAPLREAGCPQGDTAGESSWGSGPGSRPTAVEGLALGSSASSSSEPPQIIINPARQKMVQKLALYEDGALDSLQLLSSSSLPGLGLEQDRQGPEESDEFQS
Procedure: IRAK1 Enzymatic Assay IRAK1 is a human purified recombinant enzyme (His-TEV-IRAK1 (194-712)). In this assay, IRAK-1 hydrolyses ATP and autophosphorylates. Measurement of IRAK-1 inhibition was performed in streptavidin coated 384 well FlashPlate (PerkinElmer #SM[…]). His-TEV-IRAK-1 (15 ng/well), ATP (1 μ[…]]ATP 0.25 μCi/well) and compounds in DMSO (range of concentrations from 20 μM to 1 nM) or controls (2% DMSO) were incubated for 3 hours at 30° C. in assay buffer: Hepes pH7.0 50 mM, Fatty acid-free BSA 0.1%, Dithiothreitol DTT 2 mM, MgCl2 10 mM, EGTA 0.5 mM, Triton-X-100 0.01%. Kinase reaction was stopped by addition of EDTA. Supernatant was discarded, plates were washed three times with 150 mM NaCl and radioactivity was then measured in a Microbeta Trilux reader.

SMILES | pIC50 [1] | pIC50 [2]
CC(=O)N1CCC(n2cc(-c3cnc(-c4cccc(-c5cnn(C)c5)c4)nc3)cn2)C(CO)C1 (mixture of isomers) [Compound 22, 1-[3-Hydroxymethyl-4-(4-{2-[3-(1-methyl-1H-pyrazol-4-yl)-phenyl]-pyrimidin-5-yl}-pyrazol-1-yl)-piperidin-1-yl]-ethanone] | > 7.00 | 6.00 to 7.00
Cn1cc(-c2cccc(-c3ncc(-c4cnn([C@H]5CCC[C@H](N6CCOCC6)C5)c4)cn3)c2)cn1 (relative stereo) [Compound 5, 4-[Trans-3-(4-{2-[3-(1-Methyl-1H-pyrazol-4-yl)-phenyl]-pyrimidin-5-yl}-pyrazol-1-yl)-cyclohexyl]-morpholine] | 6.00 to 7.00 | 6.00 to 7.00
Cn1cc(-c2cccc(-c3ncc(-c4cnn(C5CCCC(O)(CO)C5)c4)cn3)c2)cn1 (stereo not shown) [Compound 1, 1-Hydroxymethyl-3-(4-{2-[3-(1-methyl-1H-pyrazol-4-yl)-phenyl]-pyrimidin-5-yl}-pyrazol-1-yl)-cyclohexanol] | > 7.00 | 6.00 to 7.00
Cn1cc(-c2cccc(-c3ncc(-c4cnn(CCNC(=O)OC(C)(C)C)c4)cn3)c2)cn1 [Compound 6, [2-(4-{2-[3-(1-Methyl-1H-pyrazol-4-yl)-phenyl]-pyrimidin-5-yl}-pyrazol-1-yl)-ethyl]-carbamic acid tert-butyl ester] | 6.00 to 7.00 | 6.00 to 7.00
Cn1cc(-c2cccc(-c3ncc(-c4cnn(C5CCCN(C(=O)OC(C)(C)C)C5)c4)cn3)c2)cn1 (stereo not shown) [Compound 7, 3-(4-{2-[3-(1-Methyl-1H-pyrazol-4-yl)-phenyl]-pyrimidin-5-yl}-pyrazol-1-yl)-piperidine-1-carboxylic acid tert-butyl ester] | 6.00 to 7.00 | 6.00 to 7.00
Cn1cc(-c2cccc(-c3ncc(-c4cnn(C5CCN(C(=O)OC(C)(C)C)CC5)c4)cn3)c2)cn1 [Compound 8, 4-(4-{2-[3-(1-Methyl-1H-pyrazol-4-yl)-phenyl]-pyrimidin-5-yl}-pyrazol-1-yl)-piperidine-1-carboxylic acid tert-butyl ester] | 6.00 to 7.00 | 6.00 to 7.00
C=CC(=O)NCCn1cc(-c2cnc(-c3cccc(-c4cnn(C)c4)c3)nc2)cn1 [Compound 13, N-[2-(4-{2-[3-(1-Methyl-1H-pyrazol-4-yl)-phenyl]-pyrimidin-5-yl}-pyrazol-1-yl)-ethyl]-acrylamide] | 6.00 to 7.00 | 6.00 to 7.00
C=CS(=O)(=O)NCCn1cc(-c2cnc(-c3cccc(-c4cnn(C)c4)c3)nc2)cn1 [Compound 16, Ethenesulfonic acid [2-(4-{2-[3-(1-methyl-1H-pyrazol-4-yl)-phenyl]-pyrimidin-5-yl}-pyrazol-1-yl)-ethyl]-amide] | 6.00 to 7.00 | 6.00 to 7.00
Cn1cc(-c2cccc(-c3ncc(-c4cnn([C@H]5C[C@@H]6CC[C@@H](N6)C5F)c4)cn3)c2)cn1 (stereo partly shown) [Compound 19, 2-Fluoro-3-(4-{2-[3-(1-methyl-1H-pyrazol-4-yl)-phenyl]-pyrimidin-5-yl}-pyrazol-1-yl)-8-aza-bicyclo[3.2.1]octane] | > 7.00 | > 7.00
CN1[C@H]2CC[C@@H]1C(F)[C@@H](n1cc(-c3cnc(-c4cccc(-c5cnn(C)c5)c4)nc3)cn1)C2 (stereo partly shown) [Compound 20, 2-Fluoro-8-methyl-3-(4-{2-[3-(1-methyl-1H-pyrazol-4-yl)-phenyl]-pyrimidin-5-yl}-pyrazol-1-yl)-8-aza-bicyclo[3.2.1]octane] | 6.00 to 7.00 | 6.00 to 7.00
Cn1cc(-c2cccc(-c3ncc(-c4cnn(C5CCCNC(=O)C5)c4)cn3)c2)cn1 (stereo not shown) [Compound 23, 4-(4-{2-[3-(1-Methyl-1H-pyrazol-4-yl)-phenyl]-pyrimidin-5-yl}-pyrazol-1-yl)-azepan-2-one] | > 7.00 | 6.00 to 7.00
CN1CCCC(n2cc(-c3cnc(-c4cccc(-c5cnn(C)c5)c4)nc3)cn2)CC1=O (stereo not shown) [Compound 24, 1-Methyl-4-(4-{2-[3-(1-methyl-1H-pyrazol-4-yl)-phenyl]-pyrimidin-5-yl}-pyrazol-1-yl)-azepan-2-one] | > 7.00 | 6.00 to 7.00
Cn1cc(-c2cccc(-c3ncc(-c4cnn(C5CCCC(N6CCCC(F)(F)C6)C5)c4)cn3)c2)cn1 (stereo not shown) [Compound 25, 5-{1-[3-(3,3-Difluoro-piperidin-1-yl)-cyclohexyl]-1H-pyrazol-4-yl}-2-[3-(1-methyl-1H-pyrazol-4-yl)-phenyl]-pyrimidine] | > 7.00 | 6.00 to 7.00
COCC1CNCCC1n1cc(-c2cnc(-c3cccc(-c4cnn(C)c4)c3)nc2)cn1 (stereo not shown) [Compound 29, 5-[1-(3-Methoxymethyl-piperidin-4-yl)-1H-pyrazol-4-yl]-2-[3-(1-methyl-1H-pyrazol-4-yl)-phenyl]-pyrimidine] | 6.00 to 7.00 | 4.70 to 6.00
O[C@H]1CC[C@H](n2cc(-c3cnc(-c4cccc(-c5cnn(CCN6CCOCC6)c5)c4)nc3)cn2)CC1 [Compound 30, (1r,4r)-4-[4-(2-{3-[1-(2-Morpholin-4-yl-ethyl)-1H-pyrazol-4-yl]-phenyl}-pyrimidin-5-yl)-pyrazol-1-yl]-cyclohexanol] | 6.00 to 7.00 | 4.70 to 6.00
Cn1cc(-c2cccc(-c3ncc(-c4cnn([C@H]5CC[C@]6(CCC(=O)N6CCO)CC5)c4)cn3)c2)cn1 [Compound 31, 1-(2-Hydroxy-ethyl)-8-(4-{2-[3-(1-methyl-1H-pyrazol-4-yl)-phenyl]-pyrimidin-5-yl}-pyrazol-1-yl)-1-aza-spiro[4.5]decan-2-one] | > 7.00 | 6.00 to 7.00
O[C@H]1CC[C@H](n2cc(-c3cnc(-c4cccc(-c5cnn(C6CCNCC6)c5)c4)nc3)cn2)CC1 [Compound 32, 4-(4-{2-[3-(1-Piperidin-4-yl-1H-pyrazol-4-yl)-phenyl]-pyrimidin-5-yl}-pyrazol-1-yl)-cyclohexanol] | 6.00 to 7.00 | 4.70 to 6.00
CC1COCCC1N1CCC[C@H](n2cc(-c3cnc(-c4cccc(-c5cnn(C)c5)c4)nc3)cn2)C1 (stereo partly drawn) [Compound 39, 2-[3-(1-Methyl-1H-pyrazol-4-yl)-phenyl]-5-{1-[(S)-1-(3-methyl-tetrahydro-pyran-4-yl)-piperidin-3-yl]-1H-pyrazol-4-yl}-pyrimidine] | 6.00 to 7.00 | 6.00 to 7.00
CC1COCCC1N1CCC[C@@H](n2cc(-c3cnc(-c4cccc(-c5cnn(C)c5)c4)nc3)cn2)C1 (stereo partly drawn) [Compound 40, 2-[3-(1-Methyl-1H-pyrazol-4-yl)-phenyl]-5-{1-[(R)-1-(3-methyl-tetrahydro-pyran-4-yl)-piperidin-3-yl]-1H-pyrazol-4-yl}-pyrimidine] | 6.00 to 7.00 | 6.00 to 7.00
Cn1cc(-c2cccc(-c3ncc(-c4cnn(C5CCC(C(=O)O)C5)c4)cn3)c2)cn1 (stereo not shown) [Compound 42, 3-(4-{2-[3-(1-Methyl-1H-pyrazol-4-yl)-phenyl]-pyrimidin-5-yl}-pyrazol-1-yl)-cyclopentanecarboxylic acid] | 6.00 to 7.00 | 4.70 to 6.00
Cn1ccc(-c2cccc(-c3ncc(-c4cnn([C@H]5CC[C@]6(CCC(=O)N6C)CC5)c4)cn3)c2)n1 [Compound 44, 1-Methyl-8-(4-{2-[3-(1-methyl-1H-pyrazol-3-yl)-phenyl]-pyrimidin-5-yl}-pyrazol-1-yl)-1-aza-spiro[4.5]decan-2-one] | > 7.00 | –
CN(C)C/C=C/C(=O)N1CCC(n2cc(-c3cnc(-c4cccc(-c5cnn(C)c5)c4)nc3)cn2)CC1 [Compound 47, (E)-4-Dimethylamino-1-[4-(4-{2-[3-(1-methyl-1H-pyrazol-4-yl)-phenyl]-pyrimidin-5-yl}-pyrazol-1-yl)-piperidin-1-yl]-but-2-en-1-one] | 6.00 to 7.00 | 6.00 to 7.00
